Data reported in ChEMBL document CHEMBL5113423, “Discovery and preclinical profile of sudapyridine (WX-081), a novel anti-tuberculosis agent” (Bioorg Med Chem Lett, 2022).
Values after ≈ are worked out from the molar mass of the structure shown.

Test system: Mycobacterium tuberculosis
Experiment: Antimycobacterial activity against multidrug-resistant Mycobacterium tuberculosis assessed as mycobacterial growth inhibition
Assay type: functional

What does the source list for `COc1nc(-c2ccc(Cl)cc2)ccc1[C@@H](c1ccccc1)[C@@](O)(CCN(C)C)c1cccc2ccccc12`?
MIC50: 0.111 µg/mL (≈ 0.207 µM); MIC90: 0.465 µg/mL (≈ 0.866 µM)

What does the source list for `COc1nc2ccc(Br)cc2cc1[C@@H](c1ccccc1)[C@@](O)(CCN(C)C)c1cccc2ccccc12` [BEDAQUILINE]?
MIC50: 0.032 µg/mL (≈ 0.0576 µM); MIC90: 0.111 µg/mL (≈ 0.2 µM)

Which results are given for `NNC(=O)c1ccncc1` [ISONIAZID]?
MIC50: 4.21 µg/mL (≈ 30.7 µM); MIC90: > 40 µg/mL

Which results are given for `NC[C@H]1O[C@H](O[C@H]2[C@H](O)[C@@H](O[C@H]3O[C@H](CO)[C@@H](O)[C@H](N)[C@H]3O)[C@H](N)C[C@@H]2N)[C@H](O)[C@@H](O)[C@@H]1O` [KANAMYCIN]?
MIC50: 1.24 µg/mL (≈ 2.55 µM); MIC90: > 40 µg/mL

How did the MIC50 turn out when `CO[C@H]1/C=C/O[C@@]2(C)Oc3c(C)c(O)c4c(O)c(c(/C=N/N5CCN(C)CC5)c(O)c4c3C2=O)NC(=O)/C(C)=C\C=C\[C@H](C)[C@H](O)[C@@H](C)[C@@H](O)[C@@H](C)[C@H](OC(C)=O)[C@@H]1C` [RIFAMPIN] was run?
Its MIC50 is greater than 40 µg/mL.

And the MIC90?
The MIC90 was greater than 40 µg/mL.
